According to publication PMC11187126, “Structure and dynamics of the pyroglutamylated RF-amide peptide QRFP receptor GPR103” (Nature Communications, 2024):
Like-named read-outs stand apart in the source and are kept apart here. No end group written: not given here.

Target: T1, GPR103 E203^ECL2A/Q211^5.35E/E297^6.59A (Homo sapiens, UniProt Q96P65, E203A/E297A/Q211E)
T1 construct: we used human full-length QRFPR-encoding plasmids; expressed in transfected cells; host or cells: HEK293 cells (HEK293A in the flow cytometry section), pCAGGS vector
T1 sequence (Q96P65 1-431 E203A/Q211E/E297A): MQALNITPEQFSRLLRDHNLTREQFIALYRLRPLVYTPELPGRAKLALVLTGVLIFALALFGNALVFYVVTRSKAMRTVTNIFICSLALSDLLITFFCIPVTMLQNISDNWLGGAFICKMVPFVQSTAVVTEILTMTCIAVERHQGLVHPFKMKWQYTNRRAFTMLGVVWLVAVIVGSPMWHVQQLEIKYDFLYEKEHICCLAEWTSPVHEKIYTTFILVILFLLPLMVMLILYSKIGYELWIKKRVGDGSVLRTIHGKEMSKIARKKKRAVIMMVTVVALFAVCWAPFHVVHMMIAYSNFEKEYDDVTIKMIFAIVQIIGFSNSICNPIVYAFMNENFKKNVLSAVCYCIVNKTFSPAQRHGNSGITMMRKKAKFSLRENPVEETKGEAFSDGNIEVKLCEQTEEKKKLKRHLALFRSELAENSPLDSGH
Experiment: TGFα shedding assay; Exp. level >WT (1:1)
Type: cell-based

TSGPLGNLAEELNGYSRKKGGFSFRF-NH2 [QRFP26]
Emax (Exp. #1): 103.81 % WT
Emax (Exp. #2): 100.88 % WT
Emax (Exp. #3): 112.76 % WT
Emax (mean, read-out: Emax): 106%
EC50 (n = 3): 427 nM
Emax (n = 3, read-out: Emax): 109 ± 2.9%
